The values that follow come from PubChem BioAssay AID1996.

Converted amounts (≈) assume the structure as drawn.

The conditions of the data set: buffer; pH 7.4; 200.0 µM.
For orientation: kinetic solubility means solubility judged after dilution from a stock solution rather than from solid. `COc1ccc(NC(=O)c2c(N)no[n+]2[O-])c(OC)c1`: the solubility (kinetic) came out at 1.5 µg/mL (≈ 5.35 µM).
Take `CC(C)C(OC(=O)c1ccccc1)c1nccc2ccccc12` (stereo not given): the kinetic solubility was 6.9 µg/mL (≈ 22.6 µM).
The compound `CCOC(=O)c1sc(=S)n(C)c1NC(=O)c1ccc(OC)cc1` yielded a kinetic solubility of 9.1 µg/mL (≈ 25.8 µM).
With `Cc1cc(SCC(=O)NC2CCCC2)nc2ccccc12`, the solubility (kinetic) was determined as 8.8 µg/mL (≈ 29.3 µM).
Turning to `CCN1C(=O)/C(=C\N2CCN(C(=O)c3ccco3)CC2)SC1=S`, the kinetic solubility worked out at 1.1 µg/mL (≈ 3.13 µM).
With `Cc1cc(C)c(C#N)c(SCC(=O)C2CC2)n1`, the kinetic solubility is 3.6 µg/mL (≈ 14.6 µM).
The compound `COC(=O)[C@@H](N)CS.Cl` returned a kinetic solubility of more than 25.7 µg/mL.
To `N=c1oc2cc(O)ccc2cc1C(=O)Nc1ccc(Cl)cc1` belongs 1.1 µg/mL (≈ 3.5 µM); to `O=C(CCCOc1ccc(Cl)cc1)NCCc1ccccc1`, 1.5 µg/mL (≈ 4.72 µM); to `Cc1ccc2c(c1)cc(C(=O)NCc1ccccc1)n2C`, 3.5 µg/mL (≈ 12.6 µM).
To `Nc1nc(NC(=O)c2ccccc2Cl)nn1-c1ccccc1` belongs more than 47.1 µg/mL; to `CCOc1ccc(C2C3=C(CCCC3=O)OC(N)=C2[N+](=O)[O-])cc1` (stereo not given), more than 49.6 µg/mL.
Compound `CN1C(=O)CN=C(c2ccc(Cl)cc2)c2cc(Cl)ccc21` displayed a kinetic solubility of more than 47.9 µg/mL.
In the case of `CSc1nc(C)c(C(=O)C[n+]2ccc(C)cc2)cc1C#N.[Br-]`, the kinetic solubility stood at 50 µg/mL.
The compound `CCOC(=O)c1cc(C#N)c(C)nc1N(CC)CC` showed a kinetic solubility of 16.4 µg/mL (≈ 62.8 µM). This solubility kinetic is about 3-fold lower than that of the compound before.
Consider `CCOC(=O)c1[nH]c2ccccc2c1NC(=O)NC(C)C`, for which the kinetic solubility worked out at 1.7 µg/mL (≈ 5.88 µM).
The compound `CCOc1nc(Nc2ccccc2F)nc(OCC)n1` came in with a solubility (kinetic) of 10.4 µg/mL (≈ 37.4 µM).
In turn, `COc1ccc(/C=C/c2cc(C(F)(F)F)on2)cc1` registered a solubility (kinetic) of 1.3 µg/mL (≈ 4.83 µM).
In turn, `COc1ccc2c(c1OC)CN1CCc3cc4c(cc3C1C2)OCO4` (stereo not given) gave a solubility (kinetic) of 2.1 µg/mL (≈ 6.19 µM).
`Fc1ccc(CN2CCN(c3ncccn3)CC2)c(F)c1` had a solubility (kinetic) of 32.2 µg/mL (≈ 111 µM). Against the preceding compound, the solubility kinetic is about 15-fold higher.
`CCS(=O)(=O)CCn1c([N+](=O)[O-])cnc1C` came in with a solubility (kinetic) of more than 37.1 µg/mL.
The figure for `Nc1cn(C2OC(CO)C(O)C2O)c(=O)[nH]c1=O` (stereo not given) is more than 38.9 µg/mL; for `Cc1cn(CCC(=O)Nc2ccc(N3CCOCC3)cc2)c2ccccc12` it is 46.7 µg/mL (≈ 128 µM); for `O=C(O)CN1C(=O)C2(OCCO2)c2cc(Br)ccc21` it is more than 49.2 µg/mL.
Consider `CC1CC(C)CN(CC(=O)N2CCOCC2)C1.Cl` (stereo not given), for which the kinetic solubility was more than 41.5 µg/mL.
In turn, `NC(=O)C1CC(=O)N(c2ccc(OCc3ccc([N+](=O)[O-])cc3)cc2)C1` (stereo not given) came in with a solubility (kinetic) of 20.4 µg/mL (≈ 57.4 µM).
Take `CC(C)CCc1noc(CN(CC2CCC2)CC2CCCO2)n1` (stereo not given): the kinetic solubility worked out at 11.9 µg/mL (≈ 37 µM).
As to `O=C(NN=C1CCCC1)C1COc2ccccc2O1` (stereo not given), the solubility (kinetic) was more than 39 µg/mL.
To `CC1=CC(=C(C#N)C#N)C=C(C)N1CCN1CCNCC1` belongs more than 42.5 µg/mL; to `N#Cc1ccc(COc2cccnc2[N+](=O)[O-])cc1`, 6.3 µg/mL (≈ 24.7 µM).
In turn, `O=C(NCCN1CCOCC1)c1ccc(Cl)c(Cl)c1` displayed a solubility (kinetic) of 43.5 µg/mL (≈ 143 µM).
In the case of `O=[N+]([O-])c1ccc(S(=O)(=O)NCCCc2ccccc2)cc1`, the solubility (kinetic) was determined as 28 µg/mL (≈ 87.4 µM).
`N[C@H](CSCc1ccccc1)C(=O)Nc1ccc([N+](=O)[O-])cc1` came in with a kinetic solubility of 36.3 µg/mL (≈ 110 µM).
For `Cc1c(NC(=O)[C@@H](NC(=O)c2ccc(Cl)c([N+](=O)[O-])c2)C(C)C)c(=O)n(-c2ccccc2)n1C`, the kinetic solubility is more than 72.9 µg/mL.
`O=[N+]([O-])c1cccc(CN2CC=C(c3ccc(F)cc3)CC2)c1` came in with a kinetic solubility of 3.3 µg/mL (≈ 10.6 µM).
Consider `CN(C)c1ccc(C(=O)OCc2cc(=O)n3ccsc3n2)cc1`, for which the kinetic solubility was determined as 3.8 µg/mL (≈ 11.5 µM). The solubility kinetic values of the last two compounds are within 1.5-fold of each other.
The figure for `O=c1[nH]c(=S)[nH]c2c1CN(Cc1ccc(F)cc1)CC2` is 28.6 µg/mL (≈ 98.2 µM).
`O=C(c1cccc(F)c1)N1CCCc2ccccc21`: the kinetic solubility was determined as 28.1 µg/mL (≈ 110 µM).
The figure for `COc1ccccc1NC(=O)NC1CCCc2ccccc21` (stereo not given) is 0.8 µg/mL (≈ 2.7 µM); for `CN(C)CCCNC1=CC(=O)CC(c2ccccc2)C1` (stereo not given) it is 34.8 µg/mL (≈ 128 µM).
`Cc1ccc(S(=O)(=O)N(C)C)cc1NC(=O)c1sccc1Cl`: the solubility (kinetic) was 2.4 µg/mL (≈ 6.69 µM).
`CCOC(=O)c1ccc2c(c1)N(CC#N)C(=O)C(C)(C)O2` came in with a kinetic solubility of more than 43.2 µg/mL.
`Nc1ccc2c(c1)OC1(CCCCC1)O2` displayed a kinetic solubility of 19.1 µg/mL (≈ 93.1 µM).
`Cc1c(C(=O)CN2CCCC(C)(C)C2)c2ccccc2n1C` gave a solubility (kinetic) of more than 44.8 µg/mL.
In turn, `Cc1ccccc1OCC(=O)Nc1cnn(CCCC(=O)O)c1` had a kinetic solubility of more than 47.6 µg/mL.
Compound `CS(=O)(=O)c1ccc(Cl)c(C(=O)NCC2CCCCC2)c1` returned a solubility (kinetic) of more than 49.5 µg/mL.
Turning to `Cc1cc(C)c2nc(NCc3ccccc3O)sc2c1`, the solubility (kinetic) was less than 0.3 µg/mL.
The figure for `O=C(Nc1ccc(Cl)cc1)N1CCCC(Cn2cccc2)C1` (stereo not given) is more than 47.7 µg/mL.
The figure for `COc1ccccc1C(=O)NCCN1CCN(c2ccccc2)CC1.Cl` is 52.7 µg/mL.
With `Cc1ccc(CCC(=O)Nc2cc(Cl)ccc2Cl)o1`, the kinetic solubility came to 1.9 µg/mL (≈ 6.37 µM).
As to `Cc1ccc(C(=O)Nc2ccc(Nc3ccccc3)cc2)c(Cl)c1`, the kinetic solubility was less than 0.4 µg/mL.
Compound `O=C(NC1CCCC1)C1CCCN1C(=O)Oc1ccccc1` (stereo not given) had a kinetic solubility of 41.9 µg/mL (≈ 139 µM).
`CCNc1nc(NCC)nc(NS(=O)(=O)c2ccc(N)cc2)n1` showed a solubility (kinetic) of 36.9 µg/mL (≈ 109 µM).
The figure for `Cn1c(-c2ccc(F)cc2)cnc1NCc1ccc(F)cc1F` is 34.9 µg/mL (≈ 110 µM).
In turn, `COc1ccc(OC)c(NC(=O)CCC(=O)Oc2ccc(C)cc2)c1` had a solubility (kinetic) of 49.1 µg/mL (≈ 143 µM).
The compound `O=[N+]([O-])c1ccc(N2CCc3ccccc3C2)nc1` had a kinetic solubility of 7.6 µg/mL (≈ 29.8 µM).
`COC(=O)c1ccccc1CC1SC(N)=NC1=O` (stereo not given): the solubility (kinetic) is more than 39.6 µg/mL.
Regarding `COc1ccccc1C(=O)OCC(=O)NC(=O)NC1CCCC1`, the solubility (kinetic) was more than 48.1 µg/mL.
The figure for `N#Cc1ccc(C(=O)NC(=S)N2CCN(C=O)CC2)cc1` is 39 µg/mL (≈ 129 µM); for `COc1ccc(C)cc1-n1c(C)cc(C=O)c1C` it is 36.4 µg/mL (≈ 150 µM); for `c1ccc2nc3c(nc2c1)OCC1CCCCN31` (stereo not given) it is 23.5 µg/mL (≈ 97.4 µM).
For `CC(C)[C@H](NC(=O)c1ccccc1)C(=O)NC1CCCCCCC1`, the solubility (kinetic) came out at 1.8 µg/mL (≈ 5.45 µM).
With `CCCNC(=S)N1CCC(Cc2ccccc2)CC1`, the solubility (kinetic) stood at 28.3 µg/mL (≈ 102 µM).
In the case of `Cc1ccccc1C(=O)NC(CC(C)C)C(=O)NCC(C)(C)N1CCOCC1` (stereo not given), the solubility (kinetic) is more than 58.4 µg/mL.
For `CCC(Oc1ccccc1F)C(=O)NCCCn1ccnc1` (stereo not given), the kinetic solubility is more than 45.8 µg/mL.
In turn, `COC(=O)c1c(C)oc(C)c1S(=O)(=O)NCc1ccc(OC)cc1` registered a kinetic solubility of more than 53 µg/mL.
`Cc1ccnc(SCc2cn3c(C)cc(C)nc3n2)n1` yielded a solubility (kinetic) of more than 42.8 µg/mL.
The figure for `O=S(=O)(Cc1ccccc1Cl)NCCc1ccc(F)cc1` is more than 49.2 µg/mL.
`Cc1cc(OC(=O)c2ccccc2Cl)ccc1N1C(=O)CCC1=O` gave a kinetic solubility of 19 µg/mL (≈ 55.3 µM).
`O=C(Cc1ccccc1Cl)N1CCOCC1`: the kinetic solubility was more than 36 µg/mL.
As to `CN(C)c1cc(-c2ccc(Cl)cc2)oc(=O)c1Cl`, the kinetic solubility amounted to 1.7 µg/mL (≈ 5.98 µM).
To `CCOC(=O)C1=C(C)NC(=O)NC1/C=C\c1ccccc1` (stereo not given) belongs 1.3 µg/mL (≈ 4.54 µM).
`O=C(COC(=O)/C=C/c1ccc(S(=O)(=O)N2CCOCC2)cc1)Nc1ccccc1F` came in with a solubility (kinetic) of 12.5 µg/mL (≈ 27.9 µM).
The figure for `COC(=O)c1cn(C(=O)c2ccc(Cl)cc2)c2ccccc12` is 1.6 µg/mL (≈ 5.1 µM); for `COc1cc(N)c(Cl)cc1C(=O)OCC(=O)NCC1CCCCC1` it is 4.8 µg/mL (≈ 13.5 µM).
